Ends that are not written are not given here.
Assays:
[1] = system: CD8+ T cells of healthy HLA-A*02+ donors; assay: In vitro priming of CD8+ T cells with pMHC/anti-CD28 coated beads (high density), tetramer analysis; format: cell-based, human; settings: for Immunogenicity detected: at least one well with ≥1% specific tetramer+ among CD8+ T-cells and ≥10× median of negative controls; for Positive donors/donors tested / Positive donors/donors tested (%) / Positive wells/wells tested / Positive wells/wells tested (%): high density beads
Procedure: To perform in vitro stimulations by artificial antigen presenting cells (aAPC) loaded with peptide-MHC complex (pMHC) and anti-CD28 antibody, first PBMCs (peripheral blood mononuclear cells) were isolated from fresh HLA-A*02+ buffy coats by using standard density gradient separation medium (PAA, Cölbe, Germany). Buffy coats were either obtained from the Blood Bank Tübingen or from the Katharinenhospital Stuttgart. Isolated PBMCs were incubated overnight in T-cell medium (TCM) for human in vitro priming consisting of RPMI-Glutamax (Invitrogen, Karlsruhe, Germany) supplemented with 10% heat inactivated human AB serum (PAA, Cölbe, Germany), 100 U/ml Penicillin/100 μg/ml Streptomycin (Cambrex, Verviers, Belgium), 1 mM sodium pyruvate (CC Pro, Neustadt, Germany) and 20 μg/ml Gentamycin (Cambrex). CD8+ lymphocytes were isolated using the CD8+ MACS positive selection kit (Miltenyi, Bergisch Gladbach, Germany) according to the manufacturer's instructions. Obtained CD8+ T-cells were incubated until use in TCM supplemented with 2.5 ng/ml IL-7 (PromoCell, Heidelberg, Germany) and 10 U/ml IL-2 (Chiron, Munich, Gemany). Generation of pMHC/anti-CD28 coated beads, T-cell stimulations and readout was performed as described before (Walter, S, et al., 2003, J. Immunol., 171, 4974-4978) with minor modifications. Briefly, biotinylated recombinant HLA-A*0201 molecules lacking the transmembrane domain and being biotinylated at the carboxy terminus of the heavy chain were produced following a method described by (Altman, J D, et al., 1996, Science, 274, 94-96). The purified costimulatory mouse IgG2a anti human CD28 Ab 9.3 (Jung, G, Ledbetter, J A, and Muller-Eberhard, H J; 1987, Induction of cytotoxicity in resting human T lymphocytes bound to tumor cells by antibody heteroconjugates, Proc Natl Acad Sci USA, 84, 4611-4615) was chemically biotinylated using Sulfo-N-hydroxysuccinimidobiotin as recommended by the manufacturer (Perbio, Bonn, Germany).
800,000 beads/200 μl were coated in 96-well plates in the presence of 600 ng biotin anti-CD28 plus 200 ng relevant biotin-pMHC (high density beads) or 2 ng relevant plus 200 ng irrelevant (pMHC library) MHC (low density beads). Stimulations were initiated in 96-well plates by conincubating 1×10^6 CD8+ T cells with 2×10^5 washed coated beads in 200 μl TCM supplemented with 5 ng/ml IL-12 (PromoCell) for 3-4 days at 37° C. Half of the medium was then exchanged by fresh TCM supplemented with 80 U/ml IL-2 and incubation was continued for 3-4 days at 37° C. This stimulation cycle was performed for a total of three times. Finally, tetrameric analyses were performed with fluorescent MHC tetramers (produced as described by (Altman, J D, et al., 1996, Science, 274, 94-96)) plus antibody CD8-FITC clone SK1 (BD, Heidelberg, Germany) on a four-color FACSCalibur (BD). Peptide specific cells were calculated as percentage of total CD8+ T cells. Evaluation of tetrameric analysis was performed using the software FCS Express (De Novo Software). In vitro priming of specific tetramer+CD8+ lymphocytes was detected by appropriate gating and by comparison to negative control stimulations.
Peptides of the present invention were tested together with peptides of known in vivo immunogenicity for comparison. The CEA-005 peptide that was optimised for in vitro T-cell induction (Fong, L, et al., 2001, J. Immunol., 166, 4254-4259) served as control.
Results of in vitro immunogenicity experiments conducted by immatics are summarised here. Results shown have been obtained by stimulation of CD8+ cells with high density beads. As different human serum lots may highly affect the immunogenicity results, only assays in which one and the same serum lot was used, were evaluated together.

[2] = Particle size/shape measurement and analytical HPLC of reconstituted IMA910 suspension; format: physicochemical; settings: sodium hydrogen carbonate (4.2%)
Procedure: Particle size distribution and particle shape measurement of the particles obtained after reconstitution have been performed by capturing direct images of each individual particle in the range of 0.25 to 100 μm followed by image analysis.
Furthermore, analytical HPLC was performed for a closer characterization of the obtained suspension.
IMA910 is dissolved in 700 μL sodium hydrogen carbonate (4.2%).

Row | solubility in the solution used for reconstitution of IMA910 [2] | Sequence | Immunogenicity detected [1] | Positive donors/donors tested [1] | Positive donors/donors tested (%) [1] | Positive wells/wells tested [1] | Positive wells/wells tested (%) [1]
1 | almost insoluble | ILAPVILYI [NOX-001] | yes | 3/5 | (60%) | 9/60 | (15%)
2 | almost insoluble | ALFVRLLALA [TGFBI-001] | yes | 3/4 | (75%) | 4/22 | (18%)

— US9950048B2, “Immunogenic epitopes for immunotherapy” (immatics biotechnologies GmbH, priority 2007, dated 2018)
